“Also recorded” adds a separate entry of the source. Where two headings read alike, the source gives them in different places.
Columns and labels:
scn1lab mutant zebrafish [1] = assay: locomotion (mean swim velocity) seizure-like behaviour assay in scn1lab mutant zebrafish larvae; type: in vivo, Danio rerio; conditions: for effect on seizure-like swim behaviour, initial library screen: 100 µM or 250 µM, UCSF-synthesized compound; for effect on seizure-like swim behaviour, retest of independently synthesized compound: 10, 50, 100 and 250 µM; for change in vivo at 100 µM / change in vivo at 250 µM: Danio rerio
Description: For locomotion studies, zebrafish larvae (5 days post-fertilization) were placed into a single well of a clear flat-bottomed 96-well microplate containing embryo media. Sex determination is not possible at this stage of development. All drug screening experiments were conducted in an unbiased manner by investigators blinded to the test compounds and all files coded for post hoc analysis. The 96-well plate containing larvae was then placed inside a DanioVision box where they were allowed to acclimate (20 min; room temperature). EthoVision XT software (DanioVision, Noldus Information Technology) was used to obtain locomotion plots (10 min in duration). Seizure scoring was performed, as described ([Baraban et al., 2005]). All locomotion plots were analysed for distance travelled (in millimetres) and mean velocity (in millimetres per second). After 90 min of drug exposure larvae were examined for toxic side-effects. Compounds that decreased or stopped the larva heartbeat, or reduced or eliminated the escape response when touched, were considered toxic.
For behaviour analysis, the threshold for a change in mean swim velocity ≥40% is considered significant (>1.5× SD of 250 control treated scn1lab). Unless otherwise indicated, all data in this manuscript are presented as the mean ± standard error of the mean. […] Statistically significant differences are indicated with asterisks (*P < 0.05; **P < 0.01; ***P < 0.001). […]

scn1lab mutant zebrafish [2] = assay: local field potential (LFP) electrophysiology, electrographic seizure events; type: in vivo, Danio rerio; conditions: for effect on electrographic seizure activity (LFP): 100 µM, 10 min recording epoch
Description: Using a glass micro-electrode positioned under an upright microscope, local field potential (LFP) recordings were obtained from forebrain or optic tectum structures, as described ([Baraban et al., 2005]). Agarose-embedded LFP recording sessions (10 min in duration) were obtained using Axoclamp software (Molecular Devices; Sunnyvale, CA, USA) and sampled at 1 kHz. Epileptiform events were identified post hoc. These were classified as multi-spike or poly-spike upward or downward membrane deflections greater than 3× baseline noise level and 150–250 ms in duration (interictal-like) or greater than 5× baseline noise, multi-spike and >500 ms in duration (ictal-like); both events were counted using threshold detection settings in Clampfit (Molecular Devices; Sunnyvale, CA, USA). Agarose-embedded larvae were continuously monitored for blood flow and heart rate using an Axiocam digital camera at video frame rate.
Monitoring electrographic brain activity to confirm seizure suppression is an essential assay to eliminate false positives from behavioural testing ([Griffin et al., 2018]). By placing a micro-electrode into a visually identified brain region of an agar-immobilized zebrafish larval, stable LFP recordings can be monitored for several hours ([Baraban, 2013]). At 5 days post-fertilization, LFP recordings of scn1Lab zebrafish larvae show an average of 250 abnormal electrographic seizure events during a 10 min recording epoch.

human 5-HT2AR [3] = biological target: T1, human 5-HT2AR (Homo sapiens, UniProt P28223); conditions: read-out: 5-HT2AR (nM), Table S3; cited from earlier work
human 5-HT2BR [4] = biological target: T2, human 5-HT2BR (Homo sapiens, UniProt P41595); conditions: commercially available compounds known to bind 5-HT2BR; ref Roth et al., 2000; read-out: 5-HT2BR (nM), Table S3; cited from earlier work
human 5-HT2CR [5] = biological target: T3, human 5-HT2CR (Homo sapiens, UniProt P28335); conditions: commercially available compounds known to bind 5-HT2BR; ref Roth et al., 2000; read-out: 5-HT2CR (nM), Table S3; cited from earlier work
T3 sequence (P28335 33-458): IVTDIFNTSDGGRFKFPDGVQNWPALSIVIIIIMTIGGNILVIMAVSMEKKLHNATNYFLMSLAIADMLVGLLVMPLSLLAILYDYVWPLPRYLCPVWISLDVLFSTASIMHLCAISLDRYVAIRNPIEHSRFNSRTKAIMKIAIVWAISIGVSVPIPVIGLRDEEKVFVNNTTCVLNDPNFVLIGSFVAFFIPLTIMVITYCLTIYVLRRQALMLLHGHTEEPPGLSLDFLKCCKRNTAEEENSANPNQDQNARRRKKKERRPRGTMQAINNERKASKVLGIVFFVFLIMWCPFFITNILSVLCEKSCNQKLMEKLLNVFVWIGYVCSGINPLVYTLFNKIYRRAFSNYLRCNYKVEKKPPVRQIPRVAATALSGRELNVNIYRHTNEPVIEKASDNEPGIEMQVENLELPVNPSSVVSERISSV

human 5-HT2BR [6] = biological target: T2, human 5-HT2BR; assay: radioligand binding (NIMH PDSP)
Description: (§1) All in vitro binding assay and Ki data studies were performed by the US National Institute of Mental Health Psychoactive Drug Screening Program (NIMH PDSP). For these studies, drugs were screened against recombinant, stably expressed human 5-HT2AR, 5-HT2BR, 5-HT2CR and H1, as described at https://pdspdb.unc.edu/pdspWeb/ ([Besnard et al., 2012]).

human H1 = human H1 (Homo sapiens, UniProt P35367); assay: radioligand binding (NIMH PDSP)
Description: as §1

human 5-HT2AR [7] = biological target: T1, human 5-HT2AR; assay: radioligand binding (NIMH PDSP); conditions: recombinant, stably expressed human receptor; clemizole analogues
Description: as §1

human 5-HT2CR [8] = biological target: T3, human 5-HT2CR; assay: radioligand binding (NIMH PDSP); conditions: recombinant, stably expressed human receptor; clemizole analogues
Description: as §1

human 5-HT2R = assay: radioligand binding (NIMH PDSP), any 5-HT2R subtype; conditions: 5-HT2AR, 5-HT2BR, 5-HT2CR
Description: as §1
Additionally, 5-HT2R modulating compounds exert antiepileptic activity in both preclinical ([Sourbron et al., 2016]; [Griffin et al., 2017]) and clinical studies ([Griffin et al., 2017]; [Schoonjans et al., 2017]; [Kauppila et al., 2018]). […] […].

[9] = read-out: % change in velocity, individual larva 1 (heat map)
[10] = read-out: % change in velocity, individual larva 2 (heat map)
[11] = read-out: % change in velocity, individual larva 3 (heat map)
[12] = read-out: % change in velocity, individual larva 4 (heat map)
[13] = read-out: % change in velocity, individual larva 5 (heat map)
[14] = read-out: % change in velocity, individual larva 6 (heat map)
[15] = read-out: mean velocity change from six fish, Trial 1
[16] = read-out: mean velocity change from six fish, Trial 2
[17] = recombinant, stably expressed human receptor, clemizole analogues, read-out: Ki 5-HT2BR
[18] = recombinant, stably expressed human receptor, clemizole analogues, read-out: Ki H1

human H1, sequence (P35367 whole entry): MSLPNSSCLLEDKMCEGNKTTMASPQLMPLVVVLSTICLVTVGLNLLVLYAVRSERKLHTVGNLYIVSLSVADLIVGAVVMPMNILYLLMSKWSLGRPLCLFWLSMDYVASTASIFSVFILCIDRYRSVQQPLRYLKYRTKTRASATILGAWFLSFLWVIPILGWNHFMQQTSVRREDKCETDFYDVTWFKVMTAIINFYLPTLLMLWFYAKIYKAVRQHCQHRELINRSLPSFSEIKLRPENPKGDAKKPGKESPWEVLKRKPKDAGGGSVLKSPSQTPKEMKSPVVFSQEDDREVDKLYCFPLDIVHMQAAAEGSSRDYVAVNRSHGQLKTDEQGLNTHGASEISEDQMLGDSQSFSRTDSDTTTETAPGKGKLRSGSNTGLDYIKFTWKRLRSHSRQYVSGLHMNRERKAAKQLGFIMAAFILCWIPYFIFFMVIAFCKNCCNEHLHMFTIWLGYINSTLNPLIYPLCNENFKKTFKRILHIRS
T2 sequence (P41595 whole entry): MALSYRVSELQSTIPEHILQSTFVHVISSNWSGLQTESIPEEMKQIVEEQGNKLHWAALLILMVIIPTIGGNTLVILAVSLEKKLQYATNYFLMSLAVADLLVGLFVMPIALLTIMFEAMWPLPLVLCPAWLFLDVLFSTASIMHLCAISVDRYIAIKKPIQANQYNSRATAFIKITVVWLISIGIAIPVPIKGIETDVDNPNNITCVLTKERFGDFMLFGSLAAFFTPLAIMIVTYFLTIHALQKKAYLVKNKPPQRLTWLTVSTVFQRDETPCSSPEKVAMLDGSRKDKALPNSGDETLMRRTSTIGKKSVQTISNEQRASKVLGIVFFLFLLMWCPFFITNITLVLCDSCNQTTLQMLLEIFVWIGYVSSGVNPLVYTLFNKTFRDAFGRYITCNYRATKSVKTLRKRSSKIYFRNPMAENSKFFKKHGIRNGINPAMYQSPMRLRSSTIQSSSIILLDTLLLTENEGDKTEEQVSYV
T1 sequence (P28223 whole entry): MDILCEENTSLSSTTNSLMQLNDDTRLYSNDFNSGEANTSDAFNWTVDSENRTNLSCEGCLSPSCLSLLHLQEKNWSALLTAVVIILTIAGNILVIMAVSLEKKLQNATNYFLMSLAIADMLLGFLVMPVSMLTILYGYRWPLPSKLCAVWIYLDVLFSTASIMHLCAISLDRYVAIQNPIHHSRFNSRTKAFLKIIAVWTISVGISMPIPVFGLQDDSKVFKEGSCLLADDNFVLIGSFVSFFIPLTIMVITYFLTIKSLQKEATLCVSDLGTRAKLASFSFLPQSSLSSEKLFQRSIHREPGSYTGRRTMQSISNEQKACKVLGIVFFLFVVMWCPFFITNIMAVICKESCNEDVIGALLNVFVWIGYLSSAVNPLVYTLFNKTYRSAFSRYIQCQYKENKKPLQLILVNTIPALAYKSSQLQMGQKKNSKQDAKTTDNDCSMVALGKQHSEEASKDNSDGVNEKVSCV

SMILES | effect on seizure-like swim behaviour, initial library screen (scn1lab mutant zebrafish [1]) | effect on seizure-like swim behaviour, retest of independently synthesized compound (scn1lab mutant zebrafish [1]; 30 and 90 min exposure) | change in vivo at 100 µM (scn1lab mutant zebrafish [1]; [9]) [%] | change in vivo at 250 µM (scn1lab mutant zebrafish [1]; [9]) [%] | change in vivo at 100 µM (scn1lab mutant zebrafish [1]; [10]) [%] | change in vivo at 250 µM (scn1lab mutant zebrafish [1]; [10]) [%] | change in vivo at 100 µM (scn1lab mutant zebrafish [1]; [11]) [%] | change in vivo at 250 µM (scn1lab mutant zebrafish [1]; [11]) [%] | change in vivo at 100 µM (scn1lab mutant zebrafish [1]; [12]) [%] | change in vivo at 250 µM (scn1lab mutant zebrafish [1]; [12]) [%] | change in vivo at 100 µM (scn1lab mutant zebrafish [1]; [13]) [%] | change in vivo at 250 µM (scn1lab mutant zebrafish [1]; [13]) [%] | change in vivo at 100 µM (scn1lab mutant zebrafish [1]; [14]) [%] | change in vivo at 250 µM (scn1lab mutant zebrafish [1]; [14]) [%] | change in vivo at 100 µM (scn1lab mutant zebrafish [1]; [15]) [%] | change in vivo at 250 µM (scn1lab mutant zebrafish [1]; [15]) [%] | change in vivo at 100 µM (scn1lab mutant zebrafish [1]; [16]) [%] | change in vivo at 250 µM (scn1lab mutant zebrafish [1]; [16]) [%] | effect on electrographic seizure activity (LFP) (scn1lab mutant zebrafish [2]) | binding to any human 5-HT2R (human 5-HT2R) | other results
CC(N)Cc1cccc(C(F)(F)F)c1.Cl (single isomer, unassigned; (+)) [norfenfluramine, (+)-Norfenfluramine hydrochloride, reference compound] | – | – | – | – | – | – | – | – | – | – | – | – | – | – | – | – | – | – | – | – | effect on seizure-like swim behaviour, commercially available compounds (scn1lab mutant zebrafish [1]; three concentrations, 30 and 90 min exposure): suppressed convulsive swim behaviours in a concentration-dependent manner; also recorded: restore the swimming behaviour or scn1lab mutant larvae to wild-type levels; larvae with reduced spontaneous seizure events (LFP) (scn1lab mutant zebrafish [2]; n = 8): 5 out of 8; Ki (human 5-HT2AR [3]): 194 nM; Ki (human 5-HT2BR [4]): 18 nM; Ki (human 5-HT2CR [5]): 306 nM
c1ccc2c(c1)nc(CN1CCCC1)n2CC1CCCCC1 [Compound 4] | effective in suppressing | reduced the high-velocity seizure-like swim behaviour | -85.7 | -93.5 | -30.6 | -100 | -85.6 | -100 | -68.3 | -67.4 | -79.4 | -83.7 | 146 | -100 | -41.7 | -93.4 | -44.8 | -100 | significant suppression of electrographic seizure activity | – | Ki (human 5-HT2BR [6]): 0.612 µM; Ki (human H1): 0.153 µM
FC(F)(F)c1ccc(Cn2c(CN3CCCC3)nc3ccccc32)cc1 [Compound 6] | effective in suppressing | reduced the high-velocity seizure-like swim behaviour | -34.5 | -100 | 38.1 | -91.9 | -51.3 | -100 | 10 | -100 | -75.4 | -79.3 | -79.2 | -92.7 | -40 | -94.7 | -76.2 | -90.5 | significant suppression of electrographic seizure activity | – | Ki (human 5-HT2BR [6]; read-out: Ki 5-HT2BR): 0.285 µM; Ki (human H1; read-out: Ki H1): 0.016 µM
c1ccc2c(c1)nc(CN1CCCC1)n2CC1CCOCC1 [Compound 15] | – | – | – | – | – | – | – | – | – | – | – | – | – | – | – | – | – | – | – | no significant binding | Ki (human 5-HT2AR [7]): > 10 µM; Ki (human 5-HT2BR [6]; [17]): > 10 µM; Ki (human 5-HT2CR [8]): > 10 µM; Ki (human H1; [18]): 0.865 µM
FC1(F)CCC(Cn2c(CN3CCCC3)nc3ccccc32)CC1 [Compound 17] | – | – | – | – | – | – | – | – | – | – | – | – | – | – | – | – | – | – | – | no significant binding | Ki (human 5-HT2AR [7]): > 10 µM; Ki (human 5-HT2BR [6]; [17]): > 10 µM; Ki (human 5-HT2CR [8]): > 10 µM; Ki (human H1; [18]): 0.137 µM
c1ccc2c(c1)nc(CN1CCCC1)n2CC1CCCC1 [Compound 20] | effective in suppressing | reduced the high-velocity seizure-like swim behaviour | 17.3 | -62.7 | -4.1 | -80.4 | -27.1 | -65.9 | -14.1 | -100 | -25.2 | -60.9 | -48.1 | -9.7 | -15.6 | -66.1 | -15.6 | -66.1 | significant suppression of electrographic seizure activity | – | Ki (human 5-HT2BR [6]; read-out: Ki 5-HT2BR): 0.772 µM; Ki (human H1; read-out: Ki H1): 0.161 µM
c1cn(CC2CCCCC2)c(CN2CCCC2)n1 [Compound 21] | – | – | 17.5 | 52.2 | -5.2 | -11.5 | 11.1 | 80.9 | 8.5 | -44.9 | 13.2 | 37.8 | 24 | -14.2 | 12.5 | 6.5 | 12.5 | 6.5 | – | no significant binding | –

— PMC6798786 (Brain Communications, 2019)
